Consider 16 molecules from PubChem BioAssay (NCI).

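Interpolation was linear, between the two tested concentrations surrounding the appropriate level; five concentrations were tested over 48 hours in 96-well plates. GI50 marks 50% less growth. At the TGI there is no net growth.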 Where only a bound is given, the exact number is not on record here.

What all share (assay): NCI-60 cell line screen, 48 h
Experiment [1] has as its system OVCAR-4 ovarian.
In experiment [2] the test system is IGROV1 ovarian.
Experiment [3] relates to NCI-H226 lung.
For experiment [4], the system named is BT-549 breast.
Experiment [5] concerns SK-OV-3 ovarian.
Experiment [6] concerns CCRF-CEM leukemia.
Experiment [7] concerns SN12C renal.
The subject of experiment [8] is M14 melanoma.
Experiment [9] has as its system SF-539 CNS.
In experiment [10] the test system is MDA-MB-231 breast.

Consider `CP(=O)(O)C(N)c1ccccc1` (stereo not drawn), for which the TGI in experiment [1], in [2], in experiment [3], in experiment [4], in experiment [5] and in [6] was above 100 µM each time. The TGI in experiment [7] and in experiment [8] was above 100 µM throughout.

Take `COc1cccc2c1C(=O)c1c(O)c3c(c(O)c1C2=O)CC(O)(C(C)=O)CC3O` (stereo not drawn): the TGI in [1] was 19.6 µM; in experiment [2] it was 29.7 µM; in experiment [3] it was 18.6 µM; in experiment [9] it was 21.3 µM; in experiment [5], 36.9 µM; in experiment [6], 23.2 µM. For the same molecule, the TGI in experiment [7] worked out at 29.4 µM.

As for `Nc1ccn(CCCC(c2ccccc2)P(=O)(O)O)c(=O)n1` (stereo not drawn), the TGI in experiment [2], in [9], in experiment [5], in [6], in experiment [7] and in experiment [8] was above 100 µM in each case.

Regarding `COc1ccc(C=NCCCN=Cc2ccc(OC)cc2O)c(O)c1`, the TGI in experiment [1] is above 100 µM; in [2], above 100 µM; in [3], 59.3 µM; in [4] it was above 100 µM; in experiment [6], above 100 µM; in experiment [7], 90.6 µM. Also, the TGI in experiment [8] and in [10] was above 100 µM each time.

For `O=c1[nH]c(-c2ccc(Cl)cc2)cc2ccsc12`, the TGI in [1] was above 100 µM; in experiment [2] it was above 100 µM; in experiment [3], above 100 µM; in experiment [4], above 100 µM; in experiment [5], 77.9 µM; in experiment [7], above 100 µM. In experiment [8], this molecule came in with a TGI above 100 µM.

Regarding `CCc1n[nH]c(=O)n1N=C(c1ccccc1)c1ccccc1`, the TGI in experiment [1], in experiment [2], in [3], in [4], in [6] and in [7] was above 100 µM throughout. The TGI in experiment [8] and in experiment [10] was above 100 µM each time.

For the molecule `COC(=O)C1Cc2c([nH]c3ccccc23)-c2[nH]c3ccccc3c2CC(NC(C)=O)C(=O)N2CCCC2C(=O)N1` (stereo not drawn), the TGI is above 100 µM in experiment [1]; above 100 µM in experiment [2]; 18.3 µM in [3]; above 100 µM in experiment [9]; above 100 µM in [5]; above 100 µM in experiment [6]. Moreover, the TGI in experiment [7] and in experiment [10] was above 100 µM each time.

As to `COc1cccc(/C=N/NC(=O)CN(C)C)c1O`, the TGI in experiment [1], in experiment [2], in experiment [3], in experiment [4], in [9] and in [5] was above 100 µM in each case. For the same molecule, the TGI in [6], in experiment [7] and in experiment [8] was above 100 µM each time.

As to `CNC(=O)c1cc(Oc2cccc3nc(NC(=O)Nc4ccc(F)cc4F)ccc23)ccn1`, the GI50 in [4] was above 50 µM; in experiment [6], above 50 µM; in experiment [8], 1.89 µM; in [10] it was 1.59 µM. Besides, the TGI in [4], in [6], in experiment [8] and in experiment [10] was above 50 µM throughout.

Consider `O=C1C(=Cc2ccc([N+](=O)[O-])o2)C(=O)N(CCc2ccccc2)S(=O)(=O)N1CCc1ccccc1`, for which the TGI in [1] is 30 µM; in [2] it was above 100 µM; in [3] it was 41.4 µM; in experiment [9] it was above 100 µM; in experiment [5] it was above 100 µM; in experiment [6] it was above 100 µM. In addition, the TGI is above 100 µM in experiment [7] and 29 µM in [8].

For the molecule `Cc1ccc(S(=O)(=O)NCCCSCCO)cc1`, the TGI in [1], in experiment [3], in [5], in [6], in experiment [7] and in experiment [8] was above 100 µM in each case. The molecule also showed a TGI in experiment [10] above 100 µM.

On to `C[C@]12CCC(=O)C=C1CC[C@@H]1C2CC[C@@]2(C)C1CC[C@@H]2OC(=O)C12OC1CCC2=O` (stereo partly drawn), for which the TGI in [1] is 41.5 µM; in experiment [2] it was 23.6 µM; in experiment [3], 38.2 µM; in experiment [9], 36.6 µM; in [5] it was above 100 µM; in experiment [6], 32.6 µM. Moreover, the values for the TGI in experiment [7] and in experiment [8] were 55.5 µM and 32.9 µM, respectively.

Consider `Cc1cc2c(cc1-c1cc3c(cc1C)C(C(C)C)=C(O)C(=O)/C3=C\Nc1ccccn1)/C(=C/Nc1ccccn1)C(=O)C(O)=C2C(C)C`, for which the TGI was above 100 µM in experiment [1]; above 100 µM in [2]; 77.8 µM in experiment [3]; above 100 µM in [9]; above 100 µM in experiment [6]; above 100 µM in experiment [7]. Besides, the TGI in [8] and in [10] was above 100 µM in each case.

Take `O=C1NC2OC(CO)C(O)C(O)C2O1` (stereo not drawn): the TGI in experiment [1], in [2], in experiment [9], in experiment [5], in experiment [6] and in [7] was above 100 µM each time. For the same molecule, in experiment [8], the TGI is above 100 µM.

Take `COc1ccc(OC)c(-c2cc(=O)c3cc4c(cc3[nH]2)OCO4)c1`: the TGI in [1] was above 100 µM; in experiment [2], above 100 µM; in experiment [3], 55.6 µM; in [9], 16.2 µM; in [5], 17.7 µM; in experiment [6], above 100 µM. Besides, the results for the TGI in experiment [7] and in [8] were above 87.5 µM and above 100 µM, respectively.

Consider `CCOC(=O)C1=C(O)c2ccc(OC)cc2C(=O)C1=O`, for which the TGI in [1], in experiment [2], in experiment [3], in experiment [9], in experiment [5] and in experiment [6] was above 100 µM throughout. The TGI in experiment [7] and in experiment [8] was above 100 µM each time.
